# Earlier results in patent US20220095612A1, “MICRONUTRIENT COMPOSITIONS AND SYSTEMS AND METHODS OF USING SAME” (Nanochem Solutions, Inc., priority 2020, published 2022).
structure (smiles),measurement,setting,value
N[C@@H](CC(=O)O)C(=O)O [L-aspartic acid],pH at which the alpha carboxyl deprotonates,alpha carboxyl group,about 2.09
same,pH at which the carboxyl side group deprotonates,carboxyl side group,about 3.86
